According to ChEMBL document CHEMBL3352542, “Synthesis, biological evaluation and molecular modeling study of 2-(1,3,4-thiadiazolyl-thio and 4-methyl-thiazolyl-thio)-quinazolin-4-ones as a new class of DHFR inhibitors” (Bioorg Med Chem Lett, 2014):

Key:
[1] = Growth inhibition of human UO31 cells at 10 uM after 48 hrs; format: functional; conditions: UO-31, 48 h, read-out: GI
Candida albicans = assay: Antimicrobial activity against Candida albicans assessed as inhibition zone at 200 ug/disk after 24 hrs by disc-diffusion method; format: functional; conditions: read-out: IZ
Dihydrofolate reductase = biological target: T1, Dihydrofolate reductase (Bos taurus, UniProt P00376); assay: Inhibition of bovine liver DHFR
T1 sequence (P00376 whole entry): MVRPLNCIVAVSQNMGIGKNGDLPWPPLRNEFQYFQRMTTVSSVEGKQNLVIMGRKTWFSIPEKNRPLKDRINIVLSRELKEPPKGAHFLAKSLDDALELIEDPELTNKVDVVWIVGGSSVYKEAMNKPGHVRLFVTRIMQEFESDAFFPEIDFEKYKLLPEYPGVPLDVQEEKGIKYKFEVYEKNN

Staphylococcus aureus = assay: Antimicrobial activity against Staphylococcus aureus assessed as inhibition zone at 200 ug/disk after 24 hrs by disc-diffusion method; format: functional; conditions: read-out: IZ
MDA-MB-468 = assay: Growth inhibition of human MDA-MB-468 cells at 10 uM after 48 hrs; format: functional; conditions: MDA-MB-468, 48 h, read-out: GI
Bacillus subtilis = assay: Antimicrobial activity against Bacillus subtilis assessed as inhibition zone at 200 ug/disk after 24 hrs by disc-diffusion method; format: functional; conditions: read-out: IZ
Escherichia coli = assay: Antimicrobial activity against Escherichia coli assessed as inhibition zone at 200 ug/disk after 24 hrs by disc-diffusion method; format: functional; conditions: read-out: IZ
[2] = Growth inhibition of human SF295 cells at 10 uM after 48 hrs; format: functional; conditions: SF-295, 48 h, read-out: GI
Pseudomonas aeruginosa = assay: Antimicrobial activity against Pseudomonas aeruginosa assessed as inhibition zone at 200 ug/disk after 24 hrs by disc-diffusion method; format: functional; conditions: read-out: IZ
[3] = Growth inhibition of human HOP92 cells at 10 uM after 48 hrs; format: functional; conditions: HOP-92, 48 h, read-out: GI
[4] = Growth inhibition of human PC3 cells at 10 uM after 48 hrs; format: functional; conditions: PC-3, 48 h, read-out: GI
T47D = assay: Growth inhibition of human T47D cells at 10 uM after 48 hrs; format: functional; conditions: read-out: GI
MCF7 = assay: Growth inhibition of human MCF7 cells at 10 uM after 48 hrs; format: functional; conditions: MCF7, 48 h, read-out: GI
NCI-H522 = assay: Growth inhibition of human NCI-H522 cells at 10 uM after 48 hrs; format: functional; conditions: NCI-H522, 48 h, read-out: GI
SR = assay: Growth inhibition of human SR cells at 10 uM after 48 hrs; format: functional; conditions: read-out: GI
HL-60(TB) = assay: Growth inhibition of human HL-60(TB) cells at 10 uM after 48 hrs; format: functional; conditions: HL-60, 48 h, read-out: GI

Row | Compound | inhibition of growth at 10 µM [1] | zone of inhibition at 200 µg/disc (Candida albicans) | IC50 (Dihydrofolate reductase) | zone of inhibition at 200 µg/disc (Staphylococcus aureus) | inhibition of growth at 10 µM (MDA-MB-468) | zone of inhibition at 200 µg/disc (Bacillus subtilis) | zone of inhibition at 200 µg/disc (Escherichia coli) | inhibition of growth at 10 µM [2] | zone of inhibition at 200 µg/disc (Pseudomonas aeruginosa) | inhibition of growth at 10 µM [3] | inhibition of growth at 10 µM [4] | inhibition of growth at 10 µM (T47D) | inhibition of growth at 10 µM (MCF7) | inhibition of growth at 10 µM (NCI-H522) | inhibition of growth at 10 µM (SR) | inhibition of growth at 10 µM (HL-60(TB))
1 | COc1cc2nc(Sc3nnc(N)s3)n(-c3ccccc3)c(=O)c2cc1OC | 14.2% | 8 mm | 10 µM | 8 mm | 10.4% | 8 mm | 8 mm | 10.6% | 8 mm | 15.4% | 10.9% | – | – | – | – | –
2 | Cc1nc(N)sc1Sc1nc2ccc(Cl)cc2c(=O)n1-c1ccccc1 | 32.6% | 8 mm | 5 µM | 8 mm | – | 8 mm | 8 mm | – | 8 mm | – | – | 14.3% | 18% | – | – | –
3 | COc1cc2nc(Sc3sc(N)nc3C)n(-c3ccccc3)c(=O)c2cc1OC | 32.3% | 8 mm | 7 µM | 8 mm | – | 8 mm | 8 mm | – | 8 mm | – | – | – | 21.7% | 25.6% | 15% | –
4 | COc1ccc(-n2c(Sc3nnc(N)s3)nc3cc(OC)c(OC)cc3c2=O)cc1 | – | 8 mm | 7 µM | 8 mm | – | 8 mm | 8 mm | – | 8 mm | 33.7% | – | – | – | – | – | –
5 | Nc1nnc(Sc2nc3ccc(Cl)cc3c(=O)n2-c2ccc(Oc3ccccc3)cc2)s1 | 17% | 8 mm | 0.4 µM | 8 mm | – | 8 mm | 8 mm | – | 8 mm | – | – | – | – | – | – | 12%
